Laboratory results reported in PMC6152024 (Molecules : A Journal of Synthetic Chemistry and Natural …, 2017).

How the values were obtained:
Assay type in all cases: in vitro ADME
CYP3A [1] = biological target: T1, CYP3A (Homo sapiens, UniProt P08684); assay: Effect on DCCTX production from CTX in HLMs; settings: 10 µM inhibitor, HLMs 0.5 mg/mL, CTX substrate; 60 min
Procedure: The effect of Gom A on CYP3A metabolism of CTX in HLMs was investigated. […] Considering the difficulty for direct CAA determination, DCCTX was assayed to reflect CAA production using an established UHPLC-MS method (II).
The CYP3A inhibitor ketoconazole (Keto) was used as positive control. Briefly, various concentrations of Gom A and Keto (0.01, 0.1, 1 and 10 µM) were incubated with HLMs (0.5 mg/mL) in PBS (0.1 M) containing NADPH-gs and 100 µM CTX in a total volume of 200 µL. After a 5 min warm up period, reactions were initiated with addition of NADPH-gs. Incubations were conducted at 37 °C for 60 min and then terminated by the addition of 200 µL ice-cold acetonitrile containing 6 ng/mL of TNZ (IS-II).

CYP3A [2] = biological target: T1, CYP3A; assay: KI and kinact assay (CYP3A inactivation) in HLMs; set-up: tissue Meilun Biotechnology Co., Ltd. (Dalian, China) lot No. M0202A; host or cells: pooled (mixed) male human liver microsomes; settings: preincubation 0-30 min with NADPH-gs, 100 µM Tes
Procedure: The following steps were similar as described in the IC50 shift assays. […] All the incubations were performed in triplicate.
Pharmacokinetic profiles of CTX and DCCTX were estimated by one-compartmental model using the DAS 2.0 software ([…], Medical College of Wannan, Anhui, China). Data were expressed as mean ± SD. Comparisons between two groups were performed using one-way ANOVA followed by LSD test in the condition of variance homogeneity or Dunnett T3 test in the case of variance heterogeneity. The differences were considered to be statistically significant at * p < 0.05 and ** p < 0.01. IC50 values of Gom A were determined by nonlinear regression analysis using GraphPad Prism 5.01 software (GraphPad Software Inc., San Diego, CA, USA). The mode of inhibition was verified by Lineweaver-Burk plots of the enzyme kinetic data, and the KI value was determined by linear regression analysis with GraphPad Prism 5.01 (GraphPad Software Inc.). The initial inactivation rate constant (kobs, min^−1) was estimated from the initial slope of the linear regression line at each concentration of Gom A. Then the values of kobs were plotted versus Gom A concentration, and the maximal inactivation rate constant kinact, along with the concentration of inactivator (at which the rate of the inactivation is half maiximal) KI values, were determined using Equation (1). […]

CYP3A [3] = biological target: T1, CYP3A; assay: IC50 shift assay (time- and NADPH-dependent inhibition) in HLMs
Procedure: A NADPH regenerating system (NADPH-gs, containing 10 mM glucose-6-phosphate, 5 mM magnesium chloride, 1 U/mL glucose-6-phosphate dehydrogenase and 1 mM NADP+) was constructed. The metabolite of Tes, 6OH-Tes, was assayed by UHPLC-MS method (I) for CYP3A activity assessment.
In a final volume of 100 µL, Gom A at different concentrations (0, 0.08, 0.31, 0.63, 2.5, 10 and 40 µM) was preincubated with 10 × HLMs (5 mg/mL) at 37 °C with NADPH-gs in PBS (0.1 M). After 30 min, the incubation mixture was diluted 10 folds using PBS (0.1 M). Then 100 µL of the diluted mixture was added into a secondary incubation containing NADPH-gs and 25 µM Tes. The final volume was 200 µL. After 10 min incubation, the reaction was terminated by the addition of 200 µL ice-cold acetonitrile containing 18 ng/mL phenacetin (IS-I). […]
Pharmacokinetic profiles of CTX and DCCTX were estimated by one-compartmental model using the DAS 2.0 software ([…], Medical College of Wannan, Anhui, China). Data were expressed as mean ± SD. […] IC50 values of Gom A were determined by nonlinear regression analysis using GraphPad Prism 5.01 software (GraphPad Software Inc., San Diego, CA, USA). The mode of inhibition was verified by Lineweaver-Burk plots of the enzyme kinetic data, and the KI value was determined by linear regression analysis with GraphPad Prism 5.01 (GraphPad Software Inc.). […]

T1 sequence (P08684 2-503): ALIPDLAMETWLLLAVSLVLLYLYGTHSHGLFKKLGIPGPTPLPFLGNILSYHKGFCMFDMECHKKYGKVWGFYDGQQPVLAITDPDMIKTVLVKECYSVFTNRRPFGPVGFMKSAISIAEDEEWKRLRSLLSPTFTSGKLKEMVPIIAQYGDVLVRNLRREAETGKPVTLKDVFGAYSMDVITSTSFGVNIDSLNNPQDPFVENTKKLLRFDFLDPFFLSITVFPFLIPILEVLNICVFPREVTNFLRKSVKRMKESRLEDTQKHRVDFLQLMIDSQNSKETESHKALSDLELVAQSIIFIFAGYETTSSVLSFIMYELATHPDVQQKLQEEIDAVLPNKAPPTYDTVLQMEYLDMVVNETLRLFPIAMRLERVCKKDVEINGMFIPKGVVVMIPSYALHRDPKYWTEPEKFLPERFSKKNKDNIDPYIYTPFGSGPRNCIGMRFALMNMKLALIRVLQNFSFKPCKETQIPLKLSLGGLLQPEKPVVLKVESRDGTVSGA

Gomisin A [Gom A]
DCCTX production, % of that in control group (CYP3A [1]): 15% | kinact (CYP3A [2]): 1.96 min⁻¹ | NADPH dependence of CYP3A inhibition (CYP3A [3]; Gom A 1 µM preincubated 30 min with vs without NADPH-gs, data not shown): more potent when Gom A was preincubated with NADPH | shift in IC50 (CYP3A [3]; with vs without 30 min preincubation): 1.8 fold
